Counter-ions that a name gives are not always drawn. Like-named read-outs stand apart in the source and are kept apart here.
Columns and labels:
[1] = target: T1, SARS-CoV-2 PLpro (nsp3 1564–1878) (Severe acute respiratory syndrome coronavirus 2, UniProt P0DTD1); test: biochemical; parameters: FRET-quenched peptide (Pro3) cleavage by PLpro, 10 min pre-incubation, slope over 20 min, normalised to no-compound control; settings: low concentration screen, read-out: % of control remaining
[2] = target: T1, SARS-CoV-2 PLpro (nsp3 1564–1878); test: biochemical; parameters: FRET-quenched peptide (Pro3) cleavage by PLpro, 10 min pre-incubation, slope over 20 min, normalised to no-compound control; settings: high concentration screen, read-out: % of control remaining

CCC(Sc1nnc2c(n1)[nH]c1ccccc12)C(=O)N1c2ccccc2Sc2ccccc21 (stereo not drawn) [Inauhzin]
remaining activity at 1.25 µM ([1]; Well no.=6158): 100%
remaining activity at 3.75 µM ([2]; Well no.=6158): 91.7%

CCc1cc2c(cc1CC)CC(NC[C@H](O)c1ccc(O)c3[nH]c(=O)ccc13)C2 [Indacaterol (maleate)]
remaining activity at 1.25 µM ([1]; Well no.=8199): 105%
remaining activity at 3.75 µM ([2]; Well no.=8199): 95%

CCc1cc2c(cc1CC)CC(NC[C@H](O)c1ccc(O)c3[nH]c(=O)ccc13)C2 [Indacaterol Maleate]
remaining activity at 1.25 µM ([1]; Well no.=5323): 101%
remaining activity at 3.75 µM ([2]; Well no.=5323): 98.4%

CC1Cc2ccccc2N1NC(=O)c1ccc(Cl)c(S(N)(=O)=O)c1 (stereo not drawn) [Indapamide]
remaining activity at 1.25 µM ([1]; Well no.=2224): 98.6%
remaining activity at 3.75 µM ([2]; Well no.=2224): 103%

CN[C@@H]1C[C@@H](c2ccc(Cl)c(Cl)c2)c2ccccc21 [Indatraline hydrochloride]
remaining activity at 1.25 µM ([1]; Well no.=969): 106%
remaining activity at 3.75 µM ([2]; Well no.=969): 106%

O=C(Nc1ccncc1)C(=O)c1cn(Cc2ccc(Cl)cc2)c2ccccc12 [Indibulin]
remaining activity at 1.25 µM ([1]; Well no.=6784): 98.6%
remaining activity at 3.75 µM ([2]; Well no.=6784): 98.9%

O=Nc1c(-c2c(O)[nH]c3ccccc23)[nH]c2ccccc12 [Indirubin-3'-oxime]
remaining activity at 1.25 µM ([1]; Well no.=668): 95.2%
remaining activity at 3.75 µM ([2]; Well no.=668): 92.9%

O=Nc1c(-c2c(O)[nH]c3ccccc23)[nH]c2ccccc12 [Indirubin-3?-monoxime]
remaining activity at 1.25 µM ([1]; Well no.=2358): 99.7%
remaining activity at 3.75 µM ([2]; Well no.=2358): 106%

O=C1Nc2ccccc2/C1=C1/Nc2ccccc2C1=O [Indirubin]
remaining activity at 1.25 µM ([1]; Well no.=3771): 95.4%
remaining activity at 3.75 µM ([2]; Well no.=3771): 101%

NS(=O)(=O)c1ccc(S(=O)(=O)Nc2cccc3c(Cl)c[nH]c23)cc1 [Indisulam]
remaining activity at 1.25 µM ([1]; Well no.=6068): 94.4%
remaining activity at 3.75 µM ([2]; Well no.=6068): 95%

O=C(O)Cc1c[nH]c2ccccc12 [Indole-3-acetic acid]
remaining activity at 1.25 µM ([1]; Well no.=3667): 101%
remaining activity at 3.75 µM ([2]; Well no.=3667): 104%

O=C(O)CCCc1c[nH]c2ccccc12 [Indole-3-butyric acid]
remaining activity at 1.25 µM ([1]; Well no.=3210): 91.8%
remaining activity at 3.75 µM ([2]; Well no.=3210): 98.5%

OCc1c[nH]c2ccccc12 [Indole-3-carbinol]
remaining activity at 1.25 µM ([1]; Well no.=3524): 102%
remaining activity at 3.75 µM ([2]; Well no.=3524): 102%

O=C(O)c1c[nH]c2ccccc12 [Indole-3-carboxylic acid]
remaining activity at 1.25 µM ([1]; Well no.=6741): 95.4%
remaining activity at 3.75 µM ([2]; Well no.=6741): 97.8%

COc1ccc2c(c1)c(CC(=O)N1CCOCC1)c(C)n2C(=O)c1ccc(Cl)cc1 [Indomethacin morpholinylamide]
remaining activity at 1.25 µM ([1]; Well no.=971): 94.6%
remaining activity at 3.75 µM ([2]; Well no.=971): 89.7%

CC1=C[C@]23C(=O)[C@@H](C=C(COC(=O)c4ccccc4)[C@@H](O)[C@]2(O)[C@H]1OC(=O)c1ccccc1)[C@H]1[C@@H](C[C@H]3C)C1(C)C [Ingenol 3,20-dibenzoate]
remaining activity at 1.25 µM ([1]; Well no.=3363): 95%
remaining activity at 3.75 µM ([2]; Well no.=3363): 97.2%

CC1=C[C@]23C(=O)[C@@H](C=C(CO)[C@@H](O)[C@]2(O)[C@H]1O)[C@H]1[C@@H](C[C@H]3C)C1(C)C [Ingenol]
remaining activity at 1.25 µM ([1]; Well no.=3308): 98.5%
remaining activity at 3.75 µM ([2]; Well no.=3308): 99.1%

NC(=O)c1ccc(I)c([N+](=O)[O-])c1 [Iniparib (BSI-201)]
remaining activity at 1.25 µM ([1]; Well no.=5011): 103%
remaining activity at 3.75 µM ([2]; Well no.=5011): 103%

O=c1[nH]cnc2c1ncn2[C@@H]1O[C@H](CO)[C@@H](O)[C@H]1O [Inosine]
remaining activity at 1.25 µM ([1]; Well no.=5250): 92.9%
remaining activity at 1.25 µM ([1]; Well no.=6147): 105%
remaining activity at 1.25 µM ([1]; Well no.=8835): 92.8%
remaining activity at 3.75 µM ([2]; Well no.=5250): 92.9%
remaining activity at 3.75 µM ([2]; Well no.=6147): 100%
remaining activity at 3.75 µM ([2]; Well no.=8835): 89.2%

O[C@H]1[C@H](O)[C@@H](O)[C@H](O)[C@@H](O)[C@H]1O [Inositol]
remaining activity at 1.25 µM ([1]; Well no.=5481): 111%
remaining activity at 3.75 µM ([2]; Well no.=5481): 111%

NC(=O)CI [Iodoacetamide]
remaining activity at 1.25 µM ([1]; Well no.=430): 104%
remaining activity at 3.75 µM ([2]; Well no.=430): 96.4%

CC(C)NC(C)Cc1ccc(I)cc1 (stereo not drawn) [Iofetamine hydrochloride]
remaining activity at 1.25 µM ([1]; Well no.=1017): 100%
remaining activity at 3.75 µM ([2]; Well no.=1017): 105%

CC(C)[N+]1(C)[C@@H]2CC[C@H]1C[C@@H](OC(=O)C(CO)c1ccccc1)C2 (stereo partly drawn) [Ipratropium bromide]
remaining activity at 1.25 µM ([1]; Well no.=526): 105%
remaining activity at 3.75 µM ([2]; Well no.=526): 103%

CC(C)Oc1ccc2c(=O)c(-c3ccccc3)coc2c1 [Ipriflavone]
remaining activity at 1.25 µM ([1]; Well no.=5242): 95.6%
remaining activity at 3.75 µM ([2]; Well no.=5242): 97.9%

CC(C)NNC(=O)c1ccncc1 [Iproniazid phosphate]
remaining activity at 1.25 µM ([1]; Well no.=775): 104%
remaining activity at 3.75 µM ([2]; Well no.=775): 105%

CC(C)NNC(=O)c1ccncc1 [Iproniazid]
remaining activity at 1.25 µM ([1]; Well no.=2048): 94.9%
remaining activity at 3.75 µM ([2]; Well no.=2048): 96.1%

CCCCC1=NC2(CCCC2)C(=O)N1Cc1ccc(-c2ccccc2-c2nnn[nH]2)cc1 [Irbesartan]
remaining activity at 1.25 µM ([1]; Well no.=8251): 105%
remaining activity at 3.75 µM ([2]; Well no.=8251): 105%

CCc1c2c(nc3ccc(OC(=O)N4CCC(N5CCCCC5)CC4)cc13)-c1cc3c(c(=O)n1C2)COC(=O)[C@]3(O)CC [Irinotecan]
remaining activity at 1.25 µM ([1]; Well no.=5099): 99.6%
remaining activity at 3.75 µM ([2]; Well no.=5099): 98.8%

Nc1nc(N)nc(-c2cc(Cl)ccc2Cl)n1 [Irsogladine]
remaining activity at 1.25 µM ([1]; Well no.=2148): 98.6%
remaining activity at 1.25 µM ([1]; Well no.=7629): 94%
remaining activity at 3.75 µM ([2]; Well no.=2148): 98.3%
remaining activity at 3.75 µM ([2]; Well no.=7629): 88.4%

O=C1Nc2ccccc2C1=O [Isatin]
remaining activity at 1.25 µM ([1]; Well no.=8350): 95.6%
remaining activity at 3.75 µM ([2]; Well no.=8350): 95.1%

C#C[C@]1(CO)O[C@@H](n2cnc3c(N)nc(F)nc32)C[C@@H]1O [Islatravir]
remaining activity at 1.25 µM ([1]; Well no.=7822): 105%
remaining activity at 3.75 µM ([2]; Well no.=7822): 105%

C=C1C(=O)O[C@@H]2C[C@@]3(C)CCCC(=C)[C@@H]3C[C@H]12 [Isoalantolactone]
remaining activity at 1.25 µM ([1]; Well no.=6728): 97.1%
remaining activity at 3.75 µM ([2]; Well no.=6728): 93.6%

CC(C)=CCc1c(O)ccc(C(=O)/C=C/c2ccc(O)cc2)c1O [Isobavachalcone]
remaining activity at 1.25 µM ([1]; Well no.=6538): 102%
remaining activity at 3.75 µM ([2]; Well no.=6538): 97.1%

O=C1NC(=O)c2c1c1c3ccccc3[nH]c1n1cncc21 [Isogranulatimide]
remaining activity at 1.25 µM ([1]; Well no.=2504): 94.2%
remaining activity at 3.75 µM ([2]; Well no.=2504): 90.7%

O=C(O)C1=CCNCC1 [Isoguvacine hydrochloride]
remaining activity at 1.25 µM ([1]; Well no.=412): 94.2%
remaining activity at 3.75 µM ([2]; Well no.=412): 91.8%

O=C(/C=C/c1ccc(O)cc1)c1ccc(O)cc1O [Isoliquiritigenin]
remaining activity at 1.25 µM ([1]; Well no.=963): 99.7%
remaining activity at 3.75 µM ([2]; Well no.=963): 101%

Source: article PMC8286840, “Identifying SARS-CoV-2 antiviral compounds by screening for small molecule inhibitors of Nsp3 papain-like protease” (Biochemical Journal, 2021)
